# Test results: US10670605B2, “Cysteine reactive probes and uses thereof” (The Scripps Research Institute, priority 2015, dated 2020)
# Biological target: T1, VCPIP1 C219 (Q96JH7) (Homo sapiens, UniProt Q96JH7)
# T1 sequence (Q96JH7 1-1222): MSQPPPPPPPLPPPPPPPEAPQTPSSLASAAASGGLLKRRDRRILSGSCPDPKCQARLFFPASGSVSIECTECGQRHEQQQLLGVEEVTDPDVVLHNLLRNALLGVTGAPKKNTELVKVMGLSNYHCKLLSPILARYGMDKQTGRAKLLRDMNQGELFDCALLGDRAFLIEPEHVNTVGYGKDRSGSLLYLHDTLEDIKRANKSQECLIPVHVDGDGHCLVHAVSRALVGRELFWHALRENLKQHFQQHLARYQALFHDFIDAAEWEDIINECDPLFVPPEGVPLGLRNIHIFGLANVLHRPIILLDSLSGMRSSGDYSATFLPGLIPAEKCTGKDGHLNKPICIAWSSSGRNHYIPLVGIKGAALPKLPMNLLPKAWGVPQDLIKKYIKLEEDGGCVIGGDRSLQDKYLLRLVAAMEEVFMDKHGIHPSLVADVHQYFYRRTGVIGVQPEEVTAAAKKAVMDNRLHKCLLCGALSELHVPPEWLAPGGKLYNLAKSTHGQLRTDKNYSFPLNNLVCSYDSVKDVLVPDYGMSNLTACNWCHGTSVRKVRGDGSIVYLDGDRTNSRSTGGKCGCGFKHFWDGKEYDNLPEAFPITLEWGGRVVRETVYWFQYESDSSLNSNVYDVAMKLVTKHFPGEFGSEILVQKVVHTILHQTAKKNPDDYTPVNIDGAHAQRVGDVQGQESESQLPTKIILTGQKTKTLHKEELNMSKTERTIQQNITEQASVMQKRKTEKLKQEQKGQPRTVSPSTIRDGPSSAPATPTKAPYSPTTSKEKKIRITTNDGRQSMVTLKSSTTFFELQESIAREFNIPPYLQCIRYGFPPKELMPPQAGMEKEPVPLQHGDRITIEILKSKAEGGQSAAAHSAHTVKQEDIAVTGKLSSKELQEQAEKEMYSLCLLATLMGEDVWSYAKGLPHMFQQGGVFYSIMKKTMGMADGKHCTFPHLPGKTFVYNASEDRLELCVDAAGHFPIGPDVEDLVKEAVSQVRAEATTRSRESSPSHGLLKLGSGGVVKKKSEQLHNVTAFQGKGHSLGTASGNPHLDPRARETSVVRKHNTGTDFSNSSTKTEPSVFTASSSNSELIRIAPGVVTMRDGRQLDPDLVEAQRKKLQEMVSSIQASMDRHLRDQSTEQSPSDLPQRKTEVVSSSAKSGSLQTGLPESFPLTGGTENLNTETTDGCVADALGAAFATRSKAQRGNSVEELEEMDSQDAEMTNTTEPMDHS
# Assay: Competitive isoTOP-ABPP, cell lysates
# Type: binding
# Conditions: for R value (DMSO/fragment): 500 μM; for isoTOP-ABPP reactivity ratio, Q96JH7_C219 / isoTOP-ABPP reactivity profile ratio, Q96JH7_C219: 500 μm, in-vitro_ramos
smiles,measurement,setting,value
COc1ccc2c(c1)CCCN2C(=O)CCl [compound 2],R value (DMSO/fragment),"invitro, ramos",1.1
O=C(CCl)Nc1cc(C(F)(F)F)cc(C(F)(F)F)c1 [compound 3],R value (DMSO/fragment),"in vitro, MDA-MB-231",20.0
same,R value (DMSO/fragment),"invitro, ramos",15.1
C=CC(=O)N(Cc1cccnc1)c1ccc(Oc2ccccc2)c(C(F)(F)F)c1 [compound 15],"isoTOP-ABPP ratio (reactivity profile), Q96JH7_C219",500 μm in-vitro ramos,1.3
O=C(CCl)N1CCC(C(O)(c2ccccc2)c2ccccc2)CC1 [compound 20],"isoTOP-ABPP ratio (reactivity profile), Q96JH7_C219",500 μm in-vitro ramos,1.2
CC(Br)C(=O)Nc1cc(C(F)(F)F)cc(C(F)(F)F)c1 (stereo not drawn) [compound 24],"isoTOP-ABPP ratio (reactivity profile), Q96JH7_C219",500 μm in-vitro ramos,1.2
CC(C)CCOCCNC(=O)CCl [compound 27],"isoTOP-ABPP ratio (reactivity profile), Q96JH7_C219",500 μm in-vitro ramos_231,1.7
C=CC(=O)N(Cc1cccnc1)c1cc(C(F)(F)F)cc(C(F)(F)F)c1 [compound 31],"isoTOP-ABPP reactivity ratio, Q96JH7_C219",,1.0
C=CC(=O)Nc1cc(F)c(N2CCN(C(=O)OC(C)(C)C)CC2)c(F)c1 [compound 38],"isoTOP-ABPP reactivity ratio, Q96JH7_C219",,1.8
C=CC(=O)Nc1cc(C)c(Br)cc1C [compound 40],"isoTOP-ABPP reactivity ratio, Q96JH7_C219",,1.9
O=C(CCl)Nc1cccc2ncccc12 [compound 51],"isoTOP-ABPP reactivity profile ratio, Q96JH7_C219",,2.3
O=C(CCl)Nc1ccc(-c2ccccc2)cc1 [compound 52],"isoTOP-ABPP reactivity profile ratio, Q96JH7_C219",,1.6
